Measurements from US6730792B2, “β3 adrenergic agonists” (Eli Lilly and Company, priority 2000, dated 2004).

target: T1, human β3 adrenergic receptor (Homo sapiens, UniProt P13945); test: whole cell receptor coupled c-AMP assay, human β3 receptor in CHO cells (EC50, Emax relative to isoproterenol); assay type: cell-based; details: % intrinsic activity relative to isoproterenol maximal response; SEM in brackets; c-AMP in transfected CHO cells
T1 construct: expressed in transfected cells; host or cells: DXB-11 Chinese hamster ovary (CHO) cell line, stably transfected (phd expression vector)
T1 sequence (P13945 whole entry): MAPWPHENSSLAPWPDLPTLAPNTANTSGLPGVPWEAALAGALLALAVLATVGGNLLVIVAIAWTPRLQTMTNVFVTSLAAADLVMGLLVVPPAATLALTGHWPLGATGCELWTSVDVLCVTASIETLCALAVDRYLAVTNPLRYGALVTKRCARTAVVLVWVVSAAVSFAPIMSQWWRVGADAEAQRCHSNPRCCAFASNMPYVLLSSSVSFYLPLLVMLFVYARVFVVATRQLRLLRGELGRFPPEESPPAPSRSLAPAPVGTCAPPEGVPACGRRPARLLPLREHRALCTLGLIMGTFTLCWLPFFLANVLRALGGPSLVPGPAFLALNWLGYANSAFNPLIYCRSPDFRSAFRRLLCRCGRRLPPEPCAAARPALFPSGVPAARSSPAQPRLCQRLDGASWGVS
Text: The genes encoding the human β1-adrenergic receptor (Frielle et al., Proc. Natl. Acad. Sci., 84:7920-7924, 1987), the human β2-adrenergic receptor (Kobika et al., Proc. Natl. Acad. Sci., 84:46-50, 1987, Emorine et al., Proc. Natl. Acad. Sci., 84:6995-6999, 1987) and the human β3 adrenergic receptor (Granneman et al., Molecular Pharmacology, 44(2):264-70, 1993) are individually subcloned into a phd expression vector (Grinnell et al., Bio/Technology, 5:1189-1192, 1987) and transfected into the DXB-11 Chinese hamster ovary (CHO) cell line by calcium phosphate precipitation methodology. The stably transfected cells are grown to 95% confluency in 95% Dulbecco's modified Eagles Medium (DMEM), 5% fetal bovine serum and 0.01% proline. Media is removed and the cells are washed with phosphate buffered (pH 7.4) saline (without magnesium and calcium). Cells are then lifted using an enzyme free cell dissociation solution (Specialty Media, Lavallette, N.J.) and pelleted by centrifugation.
Cells from each of the above cell lines are resuspended and added (20,000/well) to a 96-well plate. Cells are incubated at 37° C. with representative compounds of the invention for 20 minutes in buffer (Hank's balanced salt solution, 10 mM HEPES, 0.1% BSA, 1 mM L-ascorbic acid, 0.2% dimethyl sulfoxide, 1 mm 3-isobutyl-1-methylxanthine, pH 7.4). After halting the incubation with quench buffer (50 mM Na Acetate, 0.25% Triton X-100, pH 5.8), the c-AMP level is quantified by scintillation proximity assay (SPA) using a modification of the commercially available c-AMP kit (Amersham, Arlington Heights, Ill.) with rabbit anti-cAMP antibody (ICN Biomedicals, Aurora, Ohio) for the kit.
Sigmoidal dose response curves, from the whole cell receptor coupled c-AMP assay are fit to a four parameter logistic equation using non linear regression: y=(a−d)/(1+(Dose/c)^b)+d where a and d are responses at zero and maximal dose, b is the slope factor and c is the EC50 as previously described (DeLean et al., Am. J. Physiol., 235, E97-E102, 1978). EC50 is assessed as the concentration producing 50% of the maximum response to each agonist.
Isoproterenol is accepted in the art as a non-selective β3 agonist and is widely used as a comparator in evaluating the activity of compounds. See Trends in Pharm. Sci., 15:3, 1994. The % intrinsic activity (Emax) of representative compounds of the invention is assessed relative to isoproterenol by the compound's maximal response divided by the isoproterenol maximal response times 100.

In order of falling Emax:
1. CC(C)(Cc1ccc(Oc2cccnc2C(N)=O)cc1)NC[C@H](O)COc1ccccc1-c1ccc(C(=O)O)s1 [Example 448]  79.9%
2. CC(C)(Cc1ccc(Oc2ncccc2C(N)=O)cc1)NC[C@H](O)COc1ccccc1-c1ccc(C(N)=O)s1 [Example 450]  67.4%

same assay, conditions: % intrinsic activity relative to isoproterenol maximal response; average of at least 3 runs; c-AMP in transfected CHO cells

In order of falling “Emax (%) ± SEM” value:
1. CC(=O)c1ccc(-c2cccc(F)c2OC[C@@H](O)CNC(C)(C)Cc2ccc(Oc3ccc(C#N)cn3)cc2)s1.O=C(O)C(F)(F)F [Example 429]  84.7 ± 12.3%
2. CC(C)(Cc1ccc(Oc2ncccc2C(N)=O)cc1)NC[C@H](O)COc1ccccc1-c1ccco1.Cl [Example 420]  78.9 ± 2.3%
3. CC(=O)c1ccc(-c2ccccc2OC[C@@H](O)CNC(C)(C)Cc2ccc(Oc3ccc(S(C)(=O)=O)cc3)cc2)s1.Cl [Example 394]  76.9 ± 5.0%
4. Cc1ccc(-c2ccccc2OC[C@@H](O)CNC(C)(C)Cc2ccc(Oc3ccc(S(C)(=O)=O)cc3)cc2)s1.Cl [Example 396]  50.5 ± 1.9%

same assay, conditions: Emax ± SEM; average of at least 3 runs except as otherwise indicated; tested as the isolated form listed

With `CC(C)(Cc1ccc(Oc2ccc(C#N)cn2)cc1)NC[C@H](O)COc1ccccc1-c1ccoc1.Cl` [Example 305] the “Emax (%) ± SEM” value was 68.8 ± 6.5%.

same assay, conditions: Emax ± standard error of the mean; average of at least 3 runs except where n = 1; compound tested in the isolated form listed

In order of falling “Emax (%) ± SEM” value:
1. CC(C)(Cc1ccc(Oc2ccc(Cl)nn2)cc1)NC[C@H](O)COc1ccccc1-c1ccns1.O=C(O)C(F)(F)F [Example 211]  88.5 ± 9.3%
2. CC(C)(Cc1ccc(Oc2cccc(Cl)c2C#N)cc1)NC[C@H](O)COc1ccccc1-c1cccs1.O=C(O)C(F)(F)F [Example 216]  85.4 ± 4.9%
3. CC(C)(Cc1ccc(Oc2ncccc2C(N)=O)cc1)NC[C@H](O)COc1ccccc1-c1cccs1.Cl [Example 69]  80.7 ± 4.4%
4. CC(C)(Cc1ccc(Oc2ncc(C(F)(F)F)cc2Cl)cc1)NC[C@H](O)COc1ccccc1-c1cccs1.O=C(O)C(F)(F)F [Example 159]  76.9 ± 7.4%
5. CC(C)(Cc1ccc(Oc2cccc(Cl)c2C(N)=O)cc1)NC[C@H](O)COc1ccccc1-c1cccs1.O=C(O)C(F)(F)F [Example 218]  76.5 ± 1.7%
6. CC(C)(Cc1ccc(Oc2cccnc2C(N)=O)cc1)NC[C@H](O)COc1ccccc1-c1cccs1.O=C(O)C(F)(F)F [Example 196]  74.4 ± 3.3%
7. CC(C)(Cc1ccc(Oc2nc(Cl)c(Cl)cc2Cl)cc1)NC[C@H](O)COc1ccccc1-c1nccs1.O=C(O)C(F)(F)F [Example 157]  73.3 ± 6.6%
8. CC(C)(Cc1ccc(Oc2nc(Cl)c(Cl)cc2Cl)cc1)NC[C@H](O)COc1ccccc1-c1ccno1.O=C(O)C(F)(F)F [Example 158]  73.0 ± 3.0%
9. CCOC(=O)c1ccc(Oc2ccc(CC(C)(C)NC[C@H](O)COc3ccccc3-c3cccs3)cc2)c(Cl)c1.O=C(O)C(F)(F)F [Example 204]  67.6 ± 4.0%
10. CC(C)(Cc1ccc(Oc2ccc(S(C)(=O)=O)cc2Cl)cc1)NC[C@H](O)COc1ccccc1-c1cccs1.O=C(O)C(F)(F)F [Example 181]  66.2 ± 1.6%
11. CC(C)(Cc1ccc(Oc2ncccc2C(N)=O)cc1)NC[C@H](O)COc1ccccc1-c1cscn1.Cl [Example 240]  65.7 ± 3.8%
12. Cc1nc(-c2ccccc2OC[C@@H](O)CNC(C)(C)Cc2ccc(Oc3ncccc3C(N)=O)cc2)[nH]c1C.Cl.Cl [Example 262]  63.6 ± 4.3%
13. COC(=O)c1ccc(Oc2ccc(CC(C)(C)NC[C@H](O)COc3ccccc3-c3cccs3)cc2)c(Cl)c1 [Example 139]  62.2 ± 7.4%
14. CC(C)(Cc1ccc(Oc2ncc(Cl)cc2Cl)cc1)NC[C@H](O)COc1ccccc1-c1ccno1.O=C(O)C(F)(F)F [Example 174]  59.3 ± 3.2%
15. CC(C)(Cc1ccc(Oc2ccc(C(N)=O)cc2Cl)cc1)NC[C@H](O)COc1ccccc1-c1ccno1.O=C(O)C(F)(F)F [Example 166]  58.3 ± 9.5%
16. CCOC(=O)c1cccnc1Oc1ccc(CC(C)(C)NC[C@H](O)COc2ccccc2-c2ccno2)cc1.O=C(O)C(F)(F)F [Example 112]  56.9 ± 8.6%
17. CC(C)(Cc1ccc(Oc2ncccc2C#N)cc1)NC[C@H](O)COc1ccccc1-c1cnco1.Cl [Example 65]  55.9 ± 5.8%
18. CC(C)(Cc1ccc(Oc2ccc(C(F)(F)F)cc2Cl)cc1)NC[C@H](O)COc1ccccc1-c1cccs1.O=C(O)C(F)(F)F [Example 170]  55.0 ± 4.8%
19. CC(C)(Cc1ccc(Oc2ccc(C(N)=O)nc2)cc1)NC[C@H](O)COc1ccccc1-c1ccon1.Cl [Example 298]  54.5 ± 0.8%
20. CC(C)(Cc1ccc(Oc2ccc(C(N)=O)cc2F)cc1)NC[C@H](O)COc1ccccc1-c1cccs1.O=C(O)C(F)(F)F [Example 190]  54.5 ± 3.3%
21. CC(C)(Cc1ccc(Oc2ccc(S(C)(=O)=O)cc2Cl)cc1)NC[C@H](O)COc1ccccc1-c1ccno1.O=C(O)C(F)(F)F [Example 183]  53.7 ± 4.3%
22. CC(C)(Cc1ccc(Oc2ncccc2C#N)cc1)NC[C@H](O)COc1ccccc1-c1cscn1.Cl [Example 239]  49.8 ± 4.5%
23. CC(C)(Cc1ccc(Oc2ncccc2C(N)=O)cc1)NC[C@H](O)COc1ccccc1-c1ccncn1 [Example 76]  48.8 ± 5.5%
24. CC(C)(Cc1ccc(Oc2ccc(C(N)=O)cn2)cc1)NC[C@H](O)COc1ccccc1-c1cscn1.Cl [Example 248]  47.5 ± 4.8%
25. CC(C)(Cc1ccc(Oc2ncccc2C(N)=O)cc1)NC[C@H](O)COc1ccccc1-n1cccn1.Cl [Example 102]  46.1 ± 4.5%
26. CC(C)(Cc1ccc(Oc2ncccc2C(N)=O)cc1)NC[C@H](O)COc1ccccc1-c1nc2ccccc2s1 [Example 82]  45.9 ± 10.7%
27. CC(C)(Cc1ccc(Oc2ccc(S(C)(=O)=O)cc2)cc1)NC[C@H](O)COc1ccccc1-c1nccs1.O=C(O)C(F)(F)F [Example 131]  43.5 ± 1.4%
28. CC(C)(Cc1ccc(Oc2ccc(C(N)=O)cc2)cc1)NC[C@H](O)COc1ccccc1-c1ccno1.O=C(O)C(F)(F)F [Example 125]  40.3 ± 7.9%
29. CC(C)(Cc1ccc(Oc2ccc(S(C)(=O)=O)cc2F)cc1)NC[C@H](O)COc1ccccc1-c1nccs1.O=C(O)C(F)(F)F [Example 224]  37.0 ± 0.3%
30. CC(C)(Cc1ccc(Oc2ccc(C#N)cn2)cc1)NC[C@H](O)COc1ccccc1-c1ccncn1 [Example 10]  35.1 ± 0.9%
31. CC(C)(Cc1ccc(Oc2ccc(S(N)(=O)=O)cc2F)cc1)NC[C@H](O)COc1ccccc1-c1cscn1.Cl [Example 251]  33.4 ± 5.7%
32. CC(C)(Cc1ccc(Oc2ncccc2C(N)=O)cc1)NC[C@H](O)COc1ccccc1N1CCCC1=O [Example 77]  22.4 ± 4.6%
33. CC(C)(Cc1ccc(Oc2ccc(C(N)=O)cn2)cc1)NC[C@H](O)COc1ccccc1-c1csnn1.O=C(O)C(=O)O [Example 44]  22.1 ± 3.3%
34. CC(C)(Cc1ccc(Oc2ccc(C(N)=O)cn2)cc1)NC[C@H](O)COc1ccccc1-c1nc2ccccc2s1 [Example 27]  20.8 ± 8.5%
35. CC(C)(Cc1ccc(Oc2ccc(C(N)=O)cn2)cc1)NC[C@H](O)COc1ccccc1N1CCCCC1.Cl.Cl [Example 24]  17.3 ± 3.2%

In order of rising “Emax (%) ± SEM” value:
1. COC(=O)c1ccc(Oc2ccc(CC(C)(C)NC[C@H](O)COc3ccccc3-c3ccnn3C)cc2)nc1 [Example 113]  20.7 n = 1%
2. COC(=O)c1ccc(Oc2ccc(CC(C)(C)NC[C@H](O)COc3ccccc3-c3ccn(C)n3)cc2)nc1 [Example 114]  56.6 n = 1%

With `CC(C)(Cc1ccc(Oc2ncccc2C(N)=O)cc1)NC[C@H](O)COc1cccc(C2=NCCN2)c1` [Example 88] the “Emax (%) ± SEM” value was less than 10%.
